Experimental data as given in article PMC6759796, “Integrating Pharmacokinetics Study, Network Analysis, and Experimental Validation to Uncover the Mechanism of Qiliqiangxin Capsule Against Chronic Heart Failure” (Frontiers in Pharmacology, 2019).
One block for each compound: values may come before it.

Tests used:
[1] = Pharmacokinetics of 29 QLQX components in rat plasma by HPLC-MS/MS after intragastric QLQX
[2] = set-up: unit not given beside the values; conditions: rat, in vivo, po
[3] = in vivo; conditions: Sprague-Dawley, rat, po
[4] = Sprague-Dawley, rat, in vivo, po, […]
[5] = rat plasma, QLQX suspension […] intragastrically, mean ± SD
[6] = Sprague-Dawley, rat, plasma, po, […]

Compound: CCN1C[C@]2(COC)[C@H](O)C[C@H](OC)[C@@]34[C@@H]5C[C@@]6(O)[C@H](OC(=O)c7ccccc7)[C@@H]5[C@@](OC(C)=O)([C@@H]([C@H](OC)[C@H]23)[C@@H]14)[C@@H](O)[C@@H]6OC [Aconitine]
Tmax [1, 4]: 0.33 h | half-life [1, 4]: 18.4 ± 5.44 h

Compound: CC(C)(O)C1CCC(C)(C2C(O)CC3(C)C4CC(OC5OC(CO)C(O)C(O)C5O)C5C(C)(C)C(OC6OCC(O)C(O)C6O)CCC56CC46CCC23C)O1 (centres unmarked) [Astragaloside]
Tmax [1, 5]: 0.67 ± 0.00 | t1/2 [1, 5]: 5.74 ± 0.78

Compound: CCN1C[C@]2(COC)[C@H](O)C[C@H](OC)[C@@]34[C@@H]5C[C@@]6(O)[C@H](OC(=O)c7ccccc7)[C@@H]5[C@@](O)([C@@H]([C@H](OC)[C@H]23)[C@@H]14)[C@@H](O)[C@@H]6OC [Benzoylaconine]
Tmax [1, 5]: 1.00 ± 0.00 | t1/2 [1, 5]: 18.63 ± 7.20

Compound: COC[C@@]12CC[C@H](OC)[C@]34C([C@H]([C@H](OC)[C@H]13)[C@]1(O)[C@H]3[C@@H](OC(=O)c5ccccc5)[C@](O)(C[C@H]34)[C@@H](OC)[C@@H]1O)N(C)C2 [Benzoylhypaconine]
Tmax [1, 5]: 0.67 ± 0.00 | t1/2 [1, 5]: 12.88 ± 3.47

Compound: COC[C@]12CN(C)C3[C@@H]4[C@H](OC)[C@H]1[C@@]3([C@@H](OC)C[C@H]2O)[C@@H]1C[C@@]2(O)[C@H](OC(=O)c3ccccc3)[C@@H]1[C@]4(O)[C@@H](O)[C@@H]2OC [Benzoylmesaconine]
Tmax [1, 5]: 0.67 ± 0.11 | t1/2 [1, 5]: 8.23 ± 2.02

Compound: COc1ccc(-c2coc3cc(O[C@@H]4O[C@H](CO)[C@@H](O)[C@H](O)[C@H]4O)ccc3c2=O)cc1O [Calycosin-7-glucoside]
AUC0∼t [2]: 103.26 ± 47.63 | AUC0∼∞ [2]: 120.71 ± 50.71

Compound: O=C(O)[C@H](O)Cc1ccc(O)c(O)c1 [Danshensu]
AUC0∼t [2]: 290.92 ± 68.38 | AUC0∼∞ [2]: 390.90 ± 66.50

Compound: COc1ccc(-c2coc3cc(O)ccc3c2=O)cc1 [Formononetin]
Tmax [1, 6]: 0.17 h | half-life [1, 6]: 5.07 ± 2.13 h

Compound: CC(C)=CCC[C@](C)(O[C@@H]1O[C@H](CO)[C@@H](O)[C@H](O)[C@H]1O)[C@H]1CC[C@]2(C)[C@@H]1[C@H](O)C[C@@H]1[C@@]3(C)CC[C@H](O[C@@H]4O[C@H](CO)[C@@H](O)[C@H](O)[C@H]4O)C(C)(C)[C@@H]3CC[C@]12C [Ginsenoside F2]
Tmax [3]: 0.67 h | half-life [3]: 6.23 ± 2.89 h

Tmax [1, 6]: 0.67 h | half-life [1, 6]: 9.16 ± 3.18 h
Compound: CC(C)=CCC[C@](C)(O[C@@H]1O[C@H](CO[C@@H]2O[C@H](CO)[C@@H](O)[C@H](O)[C@H]2O)[C@@H](O)[C@H](O)[C@H]1O)[C@H]1CC[C@]2(C)[C@@H]1[C@H](O)C[C@@H]1[C@@]3(C)CC[C@H](O[C@@H]4O[C@H](CO)[C@@H](O)[C@H](O)[C@H]4O[C@@H]4O[C@H](CO)[C@@H](O)[C@H](O)[C@H]4O)C(C)(C)[C@@H]3CC[C@]12C [Ginsenoside Rb1]

Tmax [1, 6]: 1.5 ± 0.06 h | half-life [1, 6]: 10.1 ± 4.53 h
Compound: CC(C)=CCC[C@](C)(O[C@@H]1O[C@H](CO[C@@H]2OC[C@H](O)[C@H](O)[C@H]2O)[C@@H](O)[C@H](O)[C@H]1O)[C@H]1CC[C@]2(C)[C@@H]1[C@H](O)C[C@@H]1[C@@]3(C)CC[C@H](O[C@@H]4O[C@H](CO)[C@@H](O)[C@H](O)[C@H]4O[C@@H]4O[C@H](CO)[C@@H](O)[C@H](O)[C@H]4O)C(C)(C)[C@@H]3CC[C@]12C [Ginsenoside Rb2]

Tmax [1, 6]: 0.67 h | half-life [1, 6]: 4.32 ± 2.1 h
Compound: CC(C)=CCC[C@](C)(O[C@@H]1O[C@H](CO[C@@H]2O[C@@H](CO)[C@H](O)[C@H]2O)[C@@H](O)[C@H](O)[C@H]1O)[C@H]1CC[C@]2(C)[C@@H]1[C@H](O)C[C@@H]1[C@@]3(C)CC[C@H](O[C@@H]4O[C@H](CO)[C@@H](O)[C@H](O)[C@H]4O[C@@H]4O[C@H](CO)[C@@H](O)[C@H](O)[C@H]4O)C(C)(C)[C@@H]3CC[C@]12C [Ginsenoside Rc]

Tmax [1, 6]: 0.67 h | half-life [1, 6]: 5.9 ± 1.14 h
Compound: CC(C)=CCC[C@](C)(O[C@@H]1O[C@H](CO)[C@@H](O)[C@H](O)[C@H]1O)[C@H]1CC[C@]2(C)[C@@H]1[C@H](O)C[C@@H]1[C@@]3(C)CC[C@H](O[C@@H]4O[C@H](CO)[C@@H](O)[C@H](O)[C@H]4O[C@@H]4O[C@H](CO)[C@@H](O)[C@H](O)[C@H]4O)C(C)(C)[C@@H]3CC[C@]12C [Ginsenoside Rd]

Tmax [1, 6]: 0.67 ± 0.06 h | half-life [1, 6]: 7.33 ± 3.45 h
Compound: CC(C)=CCC[C@](C)(O[C@@H]1O[C@H](CO)[C@@H](O)[C@H](O)[C@H]1O)[C@H]1CC[C@]2(C)[C@@H]1[C@H](O)C[C@@H]1[C@@]3(C)CC[C@H](O)C(C)(C)[C@@H]3[C@@H](O[C@@H]3O[C@H](CO)[C@@H](O)[C@H](O)[C@H]3O[C@@H]3O[C@@H](C)[C@H](O)[C@@H](O)[C@H]3O)C[C@]12C [Ginsenoside Re]

Compound: CC(C)=CCC[C@](C)(O)[C@H]1CC[C@]2(C)[C@@H]1[C@H](O)C[C@@H]1[C@@]3(C)CC[C@H](O)C(C)(C)[C@@H]3[C@@H](O[C@@H]3O[C@H](CO)[C@@H](O)[C@H](O)[C@H]3O[C@@H]3O[C@H](CO)[C@@H](O)[C@H](O)[C@H]3O)C[C@]12C [Ginsenoside Rf]
Tmax [3]: 0.67 h | half-life [3]: 6.12 ± 3.53 h

Tmax [1, 6]: 0.67 h | half-life [1, 6]: 8.69 ± 3.17 h
Compound: CC(C)=CCC[C@](C)(O[C@@H]1O[C@H](CO)[C@@H](O)[C@H](O)[C@H]1O)[C@H]1CC[C@]2(C)[C@@H]1[C@H](O)C[C@@H]1[C@@]3(C)CC[C@H](O)C(C)(C)[C@@H]3[C@@H](O[C@@H]3O[C@H](CO)[C@@H](O)[C@H](O)[C@H]3O)C[C@]12C [Ginsenoside Rg1]

Compound: CC(C)=CCC[C@](C)(O)[C@H]1CC[C@]2(C)[C@@H]1[C@H](O)C[C@@H]1[C@@]3(C)CC[C@H](O[C@@H]4O[C@H](CO)[C@@H](O)[C@H](O)[C@H]4O[C@@H]4O[C@H](CO)[C@@H](O)[C@H](O)[C@H]4O)C(C)(C)[C@@H]3CC[C@]12C [Ginsenoside Rg3]
AUC0∼t [2]: 67.13 ± 27.93 | AUC0∼∞ [2]: 89.81 ± 34.43

Compound: COc1ccc([C@@H]2CC(=O)c3c(O)cc(O[C@@H]4O[C@H](CO[C@@H]5O[C@@H](C)[C@H](O)[C@@H](O)[C@H]5O)[C@@H](O)[C@H](O)[C@H]4O)cc3O2)cc1O [Hesperidin]
AUC0∼t [2]: 154.32 ± 66.50 | AUC0∼∞ [2]: 187.77 ± 34.98

Compound: COC[C@@]12CC[C@H](OC)[C@]34C(C([C@H](OC)[C@H]13)[C@]1(OC(C)=O)[C@H]3[C@@H](OC(=O)c5ccccc5)[C@](O)(C[C@H]34)[C@@H](OC)[C@@H]1O)N(C)C2 [Hypaconitine]
Tmax [3]: 0.33 h | half-life [3]: 8.01 ± 2.39 h

Tmax [1, 6]: 0.67 h | half-life [1, 6]: 4.8 ± 0.89 h
Compound: O=C(/C=C/c1ccc(O)c2c1[C@H](C(=O)O)[C@@H](c1ccc(O)c(O)c1)O2)O[C@H](Cc1ccc(O)c(O)c1)C(=O)O [Lithospermic acid]

Compound: COC[C@]12CN(C)[C@@H]3[C@@H]4[C@H](OC)[C@H]1[C@@]3([C@@H](OC)C[C@H]2O)[C@@H]1C[C@@]2(O)[C@H](OC(=O)c3ccccc3)[C@@H]1[C@]4(OC(C)=O)[C@@H](O)[C@@H]2OC [Mesaconitine]
Tmax [1, 5]: 0.17 ± 0.06 | t1/2 [1, 5]: 6.23 ± 1.23

Tmax [1, 6]: 0.67 h | half-life [1, 6]: 8.38 ± 1.02 h
Compound: O=C(O)c1ccc(O)c(O)c1 [Protocatechuic acid]

Tmax [1, 6]: 0.67 h | half-life [1, 6]: 5.04 ± 0.98 h
Compound: O=c1c(O)c(-c2ccc(O)c(O)c2)oc2cc(O)cc(O)c12 [Quercetin]

Tmax [3]: 0.67 h | half-life [3]: 5.28 ± 1.35 h
Compound: O=C(/C=C/c1ccc(O)c(O)c1)O[C@H](Cc1ccc(O)c(O)c1)C(=O)O [Rosmarinic acid]

Compound: C[C@@H]1O[C@@H](OC[C@H]2O[C@@H](Oc3c(-c4ccc(O)c(O)c4)oc4cc(O)cc(O)c4c3=O)[C@H](O)[C@@H](O)[C@@H]2O)[C@H](O)[C@H](O)[C@H]1O [Rutin]
Tmax [3]: 0.33 h | half-life [3]: 5.33 ± 1.27 h

Tmax [3]: 0.17 h | half-life [3]: 7.5 ± 4.92 h
Compound: O=C(/C=C/c1ccc(O)c(O)c1/C=C/c1ccc(O)c(O)c1)O[C@H](Cc1ccc(O)c(O)c1)C(=O)O [Salvianolic acid A]

Compound: COc1cc(/C=C/C(=O)OCC[N+](C)(C)C)cc(OC)c1O.O=S(=O)([O-])O [Sinapine bisulfate]
AUC0∼t [2]: 3.98 ± 1.21 | AUC0∼∞ [2]: 8.76 ± 2.85

Compound: Salvianolic acid B
AUC0∼t [2]: 818.47 ± 249.00 | AUC0∼∞ [2]: 980.47 ± 112.07
